In paper PMC7782499, “Progerinin, an optimized progerin-lamin A binding inhibitor, ameliorates premature senescence phenotypes of Hutchinson-Gilford progeria syndrome” (Communications Biology, 2021):

Columns and labels:
[1] = biological target: hERG (human Ether-à-go-go-Related Gene) (Homo sapiens, UniProt Q12809); test: hERG inhibition; type: in vitro ADME
Method: At pre-set time-points, blood concentration of JH4 was determined by LC-MS/MS analysis[22],[23]. Other chemicals were also tested using similar protocol. In vitro ADME studies (plasma protein binding, CYP inhibition, microsomal stability, plasma stability, and hERG inhibition) were performed by New Drug Development Center (Daegu, Korea) using standard protocols[24],[25].

HGPS cells = test: SA-β-gal staining senescence assay in HGPS cells; type: cell-based, human
Text: Fig. S3. Chemical screening with JH4 derivatives (a total of 53 chemicals except JH010 and SLC -D011 were used). A. Summarized tables for effects of JH4 derivatives. ‘+’ means s t re ngt h of binding affinity or expression level after treatment of chemicals. Middle columns of tables show binding affinity between progerin and lamin A. Third columns of tables show level of progerin expression. […]
severe cytotoxicity (cell death or none). B , C, and D. Examples of screening based on pull-down assay. All chemicals were tested using GST pull-down assay. […]
inhibition activity than JH4. E. Generation of J H4 derivatives. To prevent rapid digestion in vivo, side chain was replaced by amide bond (J H010) or ether bond (SLC-D011).
H3K9me3 levels after treatment with J H010 and D011 in HGPS cells (n = 3 independent experiments; two- […]
with J H4, JH010, and SLC-D011 in HGPS cells (n = 3 independent experiments; two- tailed Student’s t- […]
fibroblasts from normal person and patients with HGPS (n = 3 independent experiments; two- tailed Student’s t -test), **p < 0.001, *p< 0.05. I. Transcriptional levels of progerin are not affected by treatment with SLC-D011. Total RNA was extracted after treatment with SLC-D011 for 7 days. The PCR products correspond to wild- type prelamin A and progerin transcripts. […]

Sequence of hERG (human Ether-à-go-go-Related Gene) (Q12809 whole entry): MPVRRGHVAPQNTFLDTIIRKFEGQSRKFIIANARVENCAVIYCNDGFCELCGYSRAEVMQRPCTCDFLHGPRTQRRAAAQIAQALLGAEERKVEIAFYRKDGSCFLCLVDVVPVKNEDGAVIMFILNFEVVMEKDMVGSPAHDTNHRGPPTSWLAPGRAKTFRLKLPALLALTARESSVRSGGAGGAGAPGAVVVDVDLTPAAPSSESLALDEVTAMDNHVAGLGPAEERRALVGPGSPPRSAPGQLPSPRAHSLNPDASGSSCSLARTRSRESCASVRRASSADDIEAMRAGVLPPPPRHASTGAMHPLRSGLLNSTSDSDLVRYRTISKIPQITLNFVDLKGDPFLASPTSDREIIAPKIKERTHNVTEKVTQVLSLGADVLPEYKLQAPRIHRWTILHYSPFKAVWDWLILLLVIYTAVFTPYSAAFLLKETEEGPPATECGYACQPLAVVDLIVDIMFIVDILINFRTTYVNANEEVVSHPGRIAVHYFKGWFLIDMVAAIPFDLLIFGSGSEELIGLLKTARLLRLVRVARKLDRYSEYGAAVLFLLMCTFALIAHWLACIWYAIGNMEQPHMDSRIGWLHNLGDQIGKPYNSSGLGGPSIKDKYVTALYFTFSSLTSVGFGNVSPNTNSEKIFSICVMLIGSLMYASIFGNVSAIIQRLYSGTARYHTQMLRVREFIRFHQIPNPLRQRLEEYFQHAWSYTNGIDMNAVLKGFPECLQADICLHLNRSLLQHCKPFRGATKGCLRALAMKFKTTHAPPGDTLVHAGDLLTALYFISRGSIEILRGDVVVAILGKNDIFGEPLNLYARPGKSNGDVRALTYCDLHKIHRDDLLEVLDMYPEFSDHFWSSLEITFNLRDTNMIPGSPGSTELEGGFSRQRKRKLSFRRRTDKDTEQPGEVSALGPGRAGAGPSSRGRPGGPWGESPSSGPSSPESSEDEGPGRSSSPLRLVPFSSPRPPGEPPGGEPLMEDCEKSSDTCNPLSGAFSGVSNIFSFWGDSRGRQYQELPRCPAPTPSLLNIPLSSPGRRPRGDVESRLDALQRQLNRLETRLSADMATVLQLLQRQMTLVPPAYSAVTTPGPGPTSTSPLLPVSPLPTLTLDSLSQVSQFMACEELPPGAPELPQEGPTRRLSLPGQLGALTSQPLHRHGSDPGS

## CC1(C)Oc2cc3oc(=O)ccc3cc2C[C@@H]1OC/C=C/c1ccccc1 [SLC-D011]
[1]
  hERG inhibition (in words): without severe hERG inhibition
[1]; Conc: 1uM
  hERG inhibition: % Inhibition: 14.673±4.74%
[1]; Conc: 10uM
  hERG inhibition: % Inhibition: 66.31±16.77%
HGPS cells
  Cellular senescence (SA-β-gal staining): could block cellular senescence
